Source: the supplement of paper PMC10883282

Assays:
Assay in all cases: relative viability vs DMSO control (72 h) (fraction); higher = more viable cells
KHOS-240S = test system: KHOS-240S
Procedure, shortened: (§1)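 After seeding at densities set for 80–90% confluence in 384-well plates, sarcoma cell lines waited 24 h before 2.5 µl of serially diluted compound was added. Source plates held 10 mM down to 0.0002 mM. Plates were incubated 72 h at 37 °C with 5% CO2, with 0.1% DMSO vehicle and a 5 µM positive control, and relative viability was taken from ATPLite as percent growth averaged over up to triplicate wells, with 1 set as full and 0 as none.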

RD-ES = test system: RD-ES
Procedure, shortened: as §1

RD = test system: RD
Procedure, shortened: as §1

SK-ES-1 = test system: SK-ES-1
Procedure, shortened: as §1

SW982 = test system: SW982
Procedure, shortened: as §1

Cc1cc(F)c(C(=O)Nc2cccc(-c3nncn3C(C)C)n2)cc1-n1cnc(C2CC2)c1 [Selonsertib]
relative viability
Settings	KHOS-240S	RD	RD-ES	SK-ES-1	SW982
0.00017 µM	1.05	1.11	0.972	1.01	1.05
0.00051 µM	1.07	1.11	0.988	1.05	1.05
0.00152 µM	1.04	1.09	0.955	1.03	1.07
0.00457 µM	1.06	1.1	0.983	1.09	1.05
0.01372 µM	1.07	1.11	0.999	1.08	1.08
0.04115 µM	1.06	1.1	1.02	1.03	1.09
0.1235 µM	1.07	1.09	0.983	1.03	1.07
0.3704 µM	1.06	1.11	1.01	1.01	1.09
1.111 µM	1.03	1.12	0.994	0.988	1.09
3.333 µM	0.983	1.11	0.975	0.896	1.1
10 µM	0.736	1.11	0.537	0.313	1.07

CO[C@H]1C[C@@H]2CC[C@@H](C)[C@@](O)(O2)C(=O)C(=O)N2CCCC[C@H]2C(=O)O[C@H]([C@H](C)C[C@@H]2CC[C@@H](OC(=O)C(C)(CO)CO)[C@H](OC)C2)CC(=O)[C@H](C)/C=C(\C)[C@@H](O)[C@@H](OC)C(=O)[C@H](C)C[C@H](C)/C=C/C=C/C=C/1C [Temsirolimus]
relative viability
Settings	KHOS-240S	RD	RD-ES	SK-ES-1	SW982
0.00017 µM	1.01	1.09	0.908	0.959	0.921
0.00051 µM	0.954	1.01	0.865	0.904	0.828
0.00152 µM	0.886	0.91	0.771	0.8013	0.724
0.00457 µM	0.833	0.84	0.745	0.707	0.667
0.01372 µM	0.807	0.792	0.687	0.64	0.657
0.04115 µM	0.802	0.755	0.656	0.579	0.657
0.1235 µM	0.763	0.735	0.625	0.52	0.626
0.3704 µM	0.748	0.681	0.568	0.538	0.595
1.111 µM	0.662	0.667	0.526	0.519	0.562
3.333 µM	0.581	0.578	0.435	0.432	0.473
10 µM	0.222	0.441	0.107	0.126	0.385

COc1cc2ncnc(Nc3ccc(F)c(Cl)c3)c2cc1OCCCN1CCOCC1 [Gefitinib]
relative viability
Settings	KHOS-240S	RD	RD-ES	SK-ES-1	SW982
0.00017 µM	1.01	1.03	0.944	0.989	0.997
0.00051 µM	1.05	1.04	0.967	0.988	1.01
0.00152 µM	1.01	1.03	0.954	1	1.01
0.00457 µM	1.05	1.04	0.965	1.01	1
0.01372 µM	1.03	0.995	0.97	0.9857	1
0.04115 µM	1.04	1.01	0.978	1	1.012
0.1235 µM	1	1.03	0.973	1.01	0.998
0.3704 µM	1.03	1.01	0.987	0.958	0.989
1.111 µM	1.01	1.05	0.962	0.864	0.957
3.333 µM	0.921	1.05	0.844	0.599	0.675
10 µM	0.318	0.18	0.464	0.168	0.268
